Measurements published in article PMC7457602 (bioRxiv, 2020).

Biological target: SARS-CoV-2 3CLpro (Severe acute respiratory syndrome coronavirus 2, UniProt P0DTD1)

O=c1c2ccccc2[se]n1-c1ccccc1 [Ebselen]
activity in the transfection-based assay (rescue of 3CLpro induced cytotoxicity): did not observe activity
